The test system of data set [1] is MDA-MB-231. As to the kind of experiment: Antiproliferative activity against human MDA-MB-231 cells highly expressing AXL after 72 hrs by MTT assay. To be noted: MDA-MB-231, 72 h. (Tetrazolium assays rely on reduction of a dye to a coloured formazan, in cell work by metabolically active cells.)
Data set [2] has as its system 4T1. As to the kind of experiment: Antiproliferative activity against mouse 4T1 cells highly expressing AXL after 72 hrs by MTT assay. To be noted: 4T1, 72 h.
Data set [3] in a line: Cytotoxicity against human MCF-10A cells after 72 hrs by MTT assay. It counts as toxicity, cell-based.
Data set [4] is described as follows: Cytotoxicity against human GES1 cells after 72 hrs by MTT assay. It counts as toxicity, cell-based.
The target in data set [5] is T1, Tyrosine-protein kinase receptor UFO (Homo sapiens, UniProt P30530).
T1 sequence (P30530 whole entry): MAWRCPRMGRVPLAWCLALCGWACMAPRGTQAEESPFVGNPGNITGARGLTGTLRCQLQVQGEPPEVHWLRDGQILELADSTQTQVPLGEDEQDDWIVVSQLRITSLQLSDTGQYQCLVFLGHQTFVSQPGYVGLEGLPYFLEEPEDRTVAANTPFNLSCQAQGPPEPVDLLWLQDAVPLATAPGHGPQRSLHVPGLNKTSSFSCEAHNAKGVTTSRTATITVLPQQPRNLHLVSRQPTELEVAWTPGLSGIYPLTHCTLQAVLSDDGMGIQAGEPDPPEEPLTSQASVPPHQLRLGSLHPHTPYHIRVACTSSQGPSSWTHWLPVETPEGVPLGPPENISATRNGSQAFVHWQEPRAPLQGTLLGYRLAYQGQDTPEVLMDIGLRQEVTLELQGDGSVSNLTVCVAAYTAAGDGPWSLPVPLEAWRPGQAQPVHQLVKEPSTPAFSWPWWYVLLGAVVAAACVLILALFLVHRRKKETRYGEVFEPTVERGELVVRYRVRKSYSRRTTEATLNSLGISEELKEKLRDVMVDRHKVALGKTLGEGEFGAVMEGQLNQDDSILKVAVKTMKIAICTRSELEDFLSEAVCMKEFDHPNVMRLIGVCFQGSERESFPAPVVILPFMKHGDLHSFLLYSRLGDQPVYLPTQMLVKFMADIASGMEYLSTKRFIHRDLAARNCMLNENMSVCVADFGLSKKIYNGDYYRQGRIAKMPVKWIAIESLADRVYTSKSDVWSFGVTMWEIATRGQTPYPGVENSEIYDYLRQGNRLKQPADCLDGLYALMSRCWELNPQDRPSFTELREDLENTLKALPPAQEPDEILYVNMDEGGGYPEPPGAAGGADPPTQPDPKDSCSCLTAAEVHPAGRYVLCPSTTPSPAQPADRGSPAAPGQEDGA
As to the kind of experiment: Inhibition of AXL (unknown origin) measured by FRET assay.

Data set [6] relates to MDA-MB-231. Put plainly: Antitumor activity against human MDA-MB-231 cells xenografted in female BALB/c nude mouse assessed as tumor growth inhibition at 25 mg/kg, ip. The data set is classed as functional, organism-based. A general note: Xenograft models place foreign cells or tissue in a host animal.
Data set [7] can be described thus: Toxicity in female BALB/c nude mouse xenografted with human MDA-MB-231 cells assessed as change in body wieght at 25 mg/kg, ip. To be noted: in vivo. The data set is classed as organism-based.
The nature of data set [8]: Systemic toxicity in female BALB/c nude mouse xenografted with human MDA-MB-231 cells assessed as necrosis of heart tissue at 25 mg/kg, ip. It counts as organism-based. To be noted: in vivo.
A short description of data set [9]: Systemic toxicity in female BALB/c nude mouse xenografted with human MDA-MB-231 cells assessed as necrosis of liver tissue at 25 mg/kg, ip. It counts as organism-based. Particulars: in vivo.
Data set [10] can be described thus: Systemic toxicity in female BALB/c nude mouse xenografted with human MDA-MB-231 cells assessed as necrosis of spleen tissue at 25 mg/kg, ip. Particulars: in vivo. The data set is classed as organism-based.
A short description of data set [11]: Systemic toxicity in female BALB/c nude mouse xenografted with human MDA-MB-231 cells assessed as necrosis of lung tissue at 25 mg/kg, ip. The data set is classed as organism-based. To be noted: in vivo.
Data set [12] in a line: Systemic toxicity in female BALB/c nude mouse xenografted with human MDA-MB-231 cells assessed as necrosis of kidney tissue at 25 mg/kg, ip. Particulars: in vivo. It counts as organism-based.
Data set [13] can be described thus: Systemic toxicity in female BALB/c nude mouse xenografted with human MDA-MB-231 cells assessed as inflammatory cell infiltration in heart at 25 mg/kg, ip. The data set is classed as organism-based. To be noted: in vivo.
The nature of data set [14]: Systemic toxicity in female BALB/c nude mouse xenografted with human MDA-MB-231 cells assessed as inflammatory cell infiltration in liver at 25 mg/kg, ip. It counts as organism-based. To be noted: in vivo.
Data set [15] is described as follows: Systemic toxicity in female BALB/c nude mouse xenografted with human MDA-MB-231 cells assessed as inflammatory cell infiltration in spleen at 25 mg/kg, ip. Particulars: in vivo. It counts as organism-based.
The nature of data set [16]: Systemic toxicity in female BALB/c nude mouse xenografted with human MDA-MB-231 cells assessed as inflammatory cell infiltration in lung at 25 mg/kg, ip. It counts as organism-based. Particulars: in vivo.
Data set [17] can be described thus: Systemic toxicity in female BALB/c nude mouse xenografted with human MDA-MB-231 cells assessed as inflammatory cell infiltration in kidney at 25 mg/kg, ip. The data set is classed as organism-based. Particulars: in vivo.

Active and inactive are the calls of the source. No cut-off for these calls is given here.

Usually IC50 stands for the midpoint of a concentration-inhibition curve. Lower therefore signals inhibition by little substance. Take `Nc1nc(Nc2ccc(CNC(=O)CCCNc3cccc4c3CN(C3CCC(=O)NC3=O)C4=O)cc2)nn1-c1ccc(-c2ccccc2)nn1` (stereo not drawn): the values for the IC50 in data set [1] and in [2] were 48 µM and more than 60 µM, respectively. In addition, the IC50 at 72 h in data set [3] and in data set [4] was more than 60 µM throughout.
In the case of `Nc1nc(NCCNC(=O)CCCNc2cccc3c2CN(C2CCC(=O)NC2=O)C3=O)nn1-c1ccc(-c2ccccc2)nn1` (stereo not drawn), the IC50 in [5], in [1] and in data set [2] was more than 60 µM in each case. Moreover, the IC50 at 72 h in [3] and in [4] was more than 60 µM throughout.
`Nc1nc(NCCNC(=O)CCCCNc2cccc3c2CN(C2CCC(=O)NC2=O)C3=O)nn1-c1ccc(-c2ccccc2)nn1` (stereo not drawn): the values for the IC50 in data set [1] and in data set [2] were 52.2 µM and more than 60 µM, respectively. The IC50 at 72 h in [3] and in data set [4] was more than 60 µM throughout.
Take `Nc1nc(NCCNC(=O)CCCCCCNc2cccc3c2CN(C2CCC(=O)NC2=O)C3=O)nn1-c1ccc(-c2ccccc2)nn1` (stereo not drawn): the IC50 in data set [5], in [1] and in data set [2] was more than 60 µM each time. Also, the IC50 at 72 h in data set [3] and in [4] was more than 60 µM each time.
Take `Nc1nc(Nc2ccc(CNC(=O)CCCCCCNc3cccc4c3CN(C3CCC(=O)NC3=O)C4=O)cc2)nn1-c1cc2c(nn1)-c1ccccc1CCC2` (stereo not drawn): the IC50 in data set [1] was determined as 29.5 µM; in data set [2], 2230 µM. Moreover, the IC50 at 72 h in data set [3] and in data set [4] was more than 60 µM each time.
For the compound `Nc1nc(Nc2ccc3c(c2)CC[C@@H](N2CCCC2)CC3)nn1-c1cc2c(nn1)-c1ccccc1CCC2` [BEMCENTINIB], the IC50 was 2.84 µM in data set [1] and 0.94 µM in data set [2]. In addition, the IC50 at 72 h in data set [3] and in [4] was more than 60 µM in each case. For the same compound, the TGI result in [6] was “Active”. In addition, the Activity result in data set [7], in [8], in [9], in data set [10], in data set [11] and in data set [12] was “Non-Toxic” throughout. The Activity entry in [13], in data set [14], in data set [15], in [16] and in data set [17] was “Non-Toxic” each time.
With `Nc1nc(Nc2ccc(CNC(=O)CCCCCCCNc3cccc4c3CN(C3CCC(=O)NC3=O)C4=O)cc2)nn1-c1cc2c(nn1)-c1ccccc1CCC2` (stereo not drawn), the IC50 in [1] came out at 27.6 µM; in data set [2], 21.1 µM. For the same compound, the half-maximal inhibitory concentration (IC50) at 72 h in data set [3] and in data set [4] was more than 60 µM each time.
As for `Nc1nc(NCCNC(=O)CCCCCNc2cccc3c2CN(C2CCC(=O)NC2=O)C3=O)nn1-c1ccc(-c2ccccc2)nn1` (stereo not drawn), the IC50 in data set [1] worked out at 31.7 µM; in data set [2], 27.9 µM. In addition, the IC50 at 72 h in data set [3] and in data set [4] was more than 60 µM each time.
Regarding `Nc1nc(NCCNC(=O)CCCCNc2cccc3c2CN(C2CCC(=O)NC2=O)C3=O)nn1-c1cc2c(nn1)-c1ccccc1CCC2` (stereo not drawn), the IC50 amounted to 36.2 µM in data set [1] and 7.05 µM in data set [2]. In addition, the IC50 at 72 h in [3] and in [4] was more than 60 µM each time.
As to `Nc1nc(Nc2ccc(CNC(=O)CCCCNc3cccc4c3CN(C3CCC(=O)NC3=O)C4=O)cc2)nn1-c1ccc(-c2ccccc2)nn1` (stereo not drawn), the IC50 in [1] is 35.7 µM; in data set [2], 54.2 µM. Moreover, the IC50 at 72 h in data set [3] and in data set [4] was more than 60 µM in each case.
For `Nc1nc(Nc2ccc(CNC(=O)CCCCCCNc3cccc4c3CN(C3CCC(=O)NC3=O)C4=O)cc2)nn1-c1ccc(-c2ccccc2)nn1` (stereo not drawn), the IC50 in data set [1] was 28.5 µM; in [2] it was 24.6 µM. Also, the IC50 at 72 h in data set [3] and in data set [4] was more than 60 µM each time.
As to `Nc1nc(Nc2ccc(CNC(=O)CCCCCNc3cccc4c3CN(C3CCC(=O)NC3=O)C4=O)cc2)nn1-c1cc2c(nn1)-c1ccccc1CCC2` (stereo not drawn), the IC50 in data set [1] is 32.8 µM; in data set [2], 29.6 µM. Further, the IC50 at 72 h in data set [3] and in data set [4] was more than 60 µM in each case.
`Nc1nc(NCCNC(=O)CCCNc2cccc3c2CN(C2CCC(=O)NC2=O)C3=O)nn1-c1cc2c(nn1)-c1ccccc1CCC2` (stereo not drawn): the IC50 in data set [5] and in data set [1] was more than 60 µM throughout. In addition, the IC50 at 72 h in data set [3] and in [4] was more than 60 µM each time.
Take `Nc1nc(NCCNC(=O)CCCCCCCNc2cccc3c2CN(C2CCC(=O)NC2=O)C3=O)nn1-c1ccc(-c2ccccc2)nn1` (stereo not drawn): the IC50 in data set [1] worked out at 34.7 µM; in data set [2], 19.5 µM. Moreover, the IC50 at 72 h in data set [3] and in data set [4] was more than 60 µM throughout.
For the compound `Nc1nc(NCCNC(=O)CCCCCCNc2cccc3c2CN(C2CCC(=O)NC2=O)C3=O)nn1-c1cc2c(nn1)-c1ccccc1CCC2` (stereo not drawn), the IC50 at 72 h in data set [3] and in [4] was more than 60 µM throughout.
For `Nc1nc(Nc2ccc(CNC(=O)CCCCNc3cccc4c3CN(C3CCC(=O)NC3=O)C4=O)cc2)nn1-c1cc2c(nn1)-c1ccccc1CCC2` (stereo not drawn), the IC50 in data set [1] amounted to 39.1 µM; in data set [2], 41.3 µM. The IC50 at 72 h in data set [3] and in data set [4] was more than 60 µM in each case.
Turning to `Nc1nc(Nc2ccc(CNC(=O)CCCNc3cccc4c3CN(C3CCC(=O)NC3=O)C4=O)cc2)nn1-c1cc2c(nn1)-c1ccccc1CCC2` (stereo not drawn), the IC50 in data set [1] amounted to 41.3 µM; in [2] it was 34.6 µM. Further, the IC50 at 72 h in data set [3] and in data set [4] was more than 60 µM each time.
Consider `Nc1nc(NCCNC(=O)CCCCCNc2cccc3c2CN(C2CCC(=O)NC2=O)C3=O)nn1-c1cc2c(nn1)-c1ccccc1CCC2` (stereo not drawn), for which the IC50 is more than 60 µM in data set [1] and 37.5 µM in data set [2]. The IC50 at 72 h in data set [3] and in data set [4] was more than 60 µM in each case.
Consider `Nc1nc(NCCNC(=O)CCCCCCCNc2cccc3c2CN(C2CCC(=O)NC2=O)C3=O)nn1-c1cc2c(nn1)-c1ccccc1CCC2` (stereo not drawn), for which the IC50 in [1] was more than 60 µM; in [2], 27.2 µM. Also, the IC50 at 72 h in data set [3] and in data set [4] was more than 60 µM throughout.

(Values after ChEMBL document CHEMBL5154798, “Structure-based discovery of receptor tyrosine kinase AXL degraders with excellent anti-tumor activity by selectively degrading AXL and inducing methuosis” (Eur J Med Chem, 2022).)
